The numbers were not newly measured in patent publication US20060006323A1, “Method and an apparatus for evaluating toxicity of chemical agents” (priority 2004, published 2006), which cites them from elsewhere.

One data set has as its target T1, AhR (Homo sapiens, UniProt P35869).
T1 sequence (P35869 11-848): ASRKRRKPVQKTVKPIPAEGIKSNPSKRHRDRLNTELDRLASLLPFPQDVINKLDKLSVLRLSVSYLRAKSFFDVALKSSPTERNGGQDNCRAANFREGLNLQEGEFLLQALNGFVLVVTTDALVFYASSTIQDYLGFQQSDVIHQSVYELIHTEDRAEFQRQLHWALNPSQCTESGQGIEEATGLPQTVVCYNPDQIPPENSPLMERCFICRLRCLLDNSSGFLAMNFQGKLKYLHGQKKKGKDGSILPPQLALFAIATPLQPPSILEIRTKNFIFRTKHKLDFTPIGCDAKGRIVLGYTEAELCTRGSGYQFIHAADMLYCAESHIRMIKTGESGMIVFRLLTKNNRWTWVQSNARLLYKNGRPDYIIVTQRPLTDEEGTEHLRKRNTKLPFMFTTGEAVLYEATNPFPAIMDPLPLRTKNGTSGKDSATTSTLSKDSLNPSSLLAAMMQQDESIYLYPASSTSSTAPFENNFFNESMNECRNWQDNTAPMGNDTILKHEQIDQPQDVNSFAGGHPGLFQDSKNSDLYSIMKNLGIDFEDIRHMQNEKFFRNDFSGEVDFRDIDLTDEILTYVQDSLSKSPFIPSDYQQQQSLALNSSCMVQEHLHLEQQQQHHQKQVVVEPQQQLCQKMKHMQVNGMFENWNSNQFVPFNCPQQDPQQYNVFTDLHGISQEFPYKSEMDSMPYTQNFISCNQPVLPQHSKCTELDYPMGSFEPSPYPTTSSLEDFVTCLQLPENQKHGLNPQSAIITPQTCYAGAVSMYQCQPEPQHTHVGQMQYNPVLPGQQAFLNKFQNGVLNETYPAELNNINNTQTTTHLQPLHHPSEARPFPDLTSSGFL
Conditions: published by Matsui et al. 2002, HPLC bioassay; cited from earlier work.
In the case of `O=C1/C(=C2\Nc3ccccc3C2=O)Nc2ccccc21` [indigo], the “affinity with AhR” value is reported as “strong affinity”.

System in a further data set: not given
Conditions: toxicity intensity relative to 2,3,7,8-TCDD set to be 1; cited from earlier work.
Turning to `Clc1cc2c(cc1Cl)Oc1c(Cl)c(Cl)c(Cl)c(Cl)c1O2` [1,2,3,4,7,8-HxCDD], the WHO-TEF is reported as 0.1.
Regarding `Clc1cc2c(c(Cl)c1Cl)Oc1cc(Cl)c(Cl)c(Cl)c1O2` [1,2,3,6,7,8-HxCDD], the WHO-TEF was 0.1.
On to `Clc1cc2c(c(Cl)c1Cl)Oc1c(cc(Cl)c(Cl)c1Cl)O2` [1,2,3,7,8,9-HxCDD], for which the WHO-TEF is 0.1.
Consider `Clc1cc2c(cc1Cl)Oc1c(cc(Cl)c(Cl)c1Cl)O2` [1,2,3,7,8-PeCDD], for which the WHO-TEF was 1.
`Clc1cc2c(cc1Cl)Oc1cc(Cl)c(Cl)cc1O2` [2,3,7,8-TCDD]: the WHO-TEF is recorded as 1.
In the case of `Clc1c(Cl)c(Cl)c2c(c1Cl)Oc1c(Cl)c(Cl)c(Cl)c(Cl)c1O2` [OCDD], the WHO-TEF is given as 0.0001.

System in a further data set: not given
The settings on record: reported toxicity; cited from earlier work.
Consider `Clc1c(Cl)c(Cl)c2c(c1Cl)Oc1ccccc1O2` [1,2,3,4-TCDD], for which the toxicity entry is recorded as “without any reported toxicity”.
In the case of `O=C1/C(=C2\Nc3ccccc3C2=O)Nc2ccccc21` [indigo], the toxicity result is “comparatively low”.
